Results taken from the NIST ThermoML archive (doi:10.1021/acs.jced.5b00813).

Assays:
[1] = xn = mol fraction of the nth substance listed; conditions: 298.15 K, 100 kPa, Liquid, Vibrating tube method
[2] = excess molar enthalpy (molar enthalpy of mixing); xn = mol fraction of the nth substance listed; conditions: 298.15 K, 100 kPa, Liquid, Calvet calorimetry
[3] = 298.15 K; 100 kPa; Liquid; Vibrating tube method
[4] = refractive index (Na D-line) (dimensionless); conditions: 298.15 K; 101.33 kPa; Liquid; Standard Abbe refractometry

COC(C)=O [methyl ethanoate] + CCCC(=O)OC
Conditions | mass density [kg/m3]
[1], x2 = 0 | 927.16

COC(C)=O [methyl ethanoate] + CCCCC(=O)OC
Conditions | mass density [kg/m3]
[1], x2 = 0 | 927.16

COC(C)=O [methyl ethanoate] + CCCCCCCC
Conditions | excess molar enthalpy [kcal/mol] | mass density [kg/m3]
[1], x2 = 0 | – | 927.16
[1], x2 = 0.0493 | – | 901.46
[1], x2 = 0.1011 | – | 878.04
[1], x2 = 0.1517 | – | 857.91
[1], x2 = 0.2033 | – | 839.55
[1], x2 = 0.253 | – | 823.66
[1], x2 = 0.3008 | – | 809.86
[1], x2 = 0.3471 | – | 797.79
[1], x2 = 0.3946 | – | 786.15
[1], x2 = 0.4523 | – | 773.45
[1], x2 = 0.4951 | – | 764.76
[1], x2 = 0.5307 | – | 758.11
[1], x2 = 0.5777 | – | 749.93
[1], x2 = 0.5898 | – | 747.92
[1], x2 = 0.6146 | – | 743.98
[1], x2 = 0.6388 | – | 740.27
[1], x2 = 0.6699 | – | 735.52
[1], x2 = 0.7238 | – | 728.1
[1], x2 = 0.7841 | – | 720.49
[1], x2 = 0.8333 | – | 714.64
[1], x2 = 0.8887 | – | 708.75
[1], x2 = 0.9311 | – | 704.69
[1], x2 = 0.9585 | – | 702.21
[2], x2 = 0.0466 | 0.0992 | –
[2], x2 = 0.1009 | 0.194 | –
[2], x2 = 0.1504 | 0.271 | –
[2], x2 = 0.2057 | 0.338 | –
[2], x2 = 0.258 | 0.391 | –
[2], x2 = 0.3043 | 0.427 | –
[2], x2 = 0.3516 | 0.455 | –
[2], x2 = 0.3642 | 0.464 | –
[2], x2 = 0.3999 | 0.479 | –
[2], x2 = 0.446 | 0.487 | –
[2], x2 = 0.5006 | 0.487 | –
[2], x2 = 0.5742 | 0.467 | –
[2], x2 = 0.6631 | 0.417 | –
[2], x2 = 0.7615 | 0.331 | –
[2], x2 = 0.8485 | 0.226 | –
[2], x2 = 0.9324 | 0.107 | –

CCCCC(=O)OC [methyl pentanoate]
Conditions | mass density [kg/m3] | refractive index
[3] | 884.84 | –
[4] | – | 1.3968

CCCCC(=O)OC [methyl pentanoate] + CC(C)CC(C)(C)C
Conditions | excess molar enthalpy [kcal/mol] | mass density [kg/m3]
[1], x2 = 0 | – | 884.84
[1], x2 = 0.0537 | – | 871.44
[1], x2 = 0.1588 | – | 846.38
[1], x2 = 0.2505 | – | 825.53
[1], x2 = 0.3544 | – | 803.1
[1], x2 = 0.4518 | – | 783.06
[1], x2 = 0.4984 | – | 773.84
[1], x2 = 0.5417 | – | 765.44
[1], x2 = 0.642 | – | 746.75
[1], x2 = 0.6854 | – | 738.97
[1], x2 = 0.7425 | – | 728.98
[1], x2 = 0.7967 | – | 719.79
[1], x2 = 0.8148 | – | 716.75
[1], x2 = 0.8415 | – | 712.32
[1], x2 = 0.8779 | – | 706.53
[1], x2 = 0.8999 | – | 702.99
[1], x2 = 0.9409 | – | 696.52
[2], x2 = 0.0438 | 0.0344 | –
[2], x2 = 0.0963 | 0.0672 | –
[2], x2 = 0.1589 | 0.105 | –
[2], x2 = 0.2206 | 0.137 | –
[2], x2 = 0.2692 | 0.159 | –
[2], x2 = 0.3311 | 0.177 | –
[2], x2 = 0.3825 | 0.191 | –
[2], x2 = 0.436 | 0.201 | –
[2], x2 = 0.4818 | 0.207 | –
[2], x2 = 0.5239 | 0.211 | –
[2], x2 = 0.5638 | 0.212 | –
[2], x2 = 0.5679 | 0.211 | –
[2], x2 = 0.6024 | 0.208 | –
[2], x2 = 0.6258 | 0.205 | –
[2], x2 = 0.7031 | 0.189 | –
[2], x2 = 0.7813 | 0.157 | –
[2], x2 = 0.8452 | 0.121 | –
[2], x2 = 0.9243 | 0.071 | –

CCCCC(=O)OC [methyl pentanoate] + CCCCCCCC
Conditions | excess molar enthalpy [kcal/mol] | mass density [kg/m3]
[1], x2 = 0 | – | 884.84
[1], x2 = 0.0514 | – | 872.35
[1], x2 = 0.1005 | – | 860.71
[1], x2 = 0.161 | – | 846.85
[1], x2 = 0.2134 | – | 835.46
[1], x2 = 0.2601 | – | 825.47
[1], x2 = 0.3084 | – | 815.53
[1], x2 = 0.3625 | – | 804.47
[1], x2 = 0.4427 | – | 788.93
[1], x2 = 0.4558 | – | 786.45
[1], x2 = 0.5104 | – | 776.34
[1], x2 = 0.5504 | – | 769.1
[1], x2 = 0.6116 | – | 758.45
[1], x2 = 0.6541 | – | 751.22
[1], x2 = 0.7081 | – | 742.25
[1], x2 = 0.7535 | – | 734.86
[1], x2 = 0.8013 | – | 727.38
[1], x2 = 0.8518 | – | 719.71
[1], x2 = 0.9059 | – | 711.73
[1], x2 = 0.9521 | – | 705.03
[2], x2 = 0.0427 | 0.0387 | –
[2], x2 = 0.0951 | 0.0805 | –
[2], x2 = 0.1523 | 0.122 | –
[2], x2 = 0.2098 | 0.158 | –
[2], x2 = 0.2677 | 0.187 | –
[2], x2 = 0.3234 | 0.211 | –
[2], x2 = 0.377 | 0.228 | –
[2], x2 = 0.4266 | 0.24 | –
[2], x2 = 0.4619 | 0.249 | –
[2], x2 = 0.4695 | 0.249 | –
[2], x2 = 0.5113 | 0.252 | –
[2], x2 = 0.5126 | 0.25 | –
[2], x2 = 0.5411 | 0.249 | –
[2], x2 = 0.5701 | 0.248 | –
[2], x2 = 0.6364 | 0.236 | –
[2], x2 = 0.709 | 0.212 | –
[2], x2 = 0.7745 | 0.181 | –
[2], x2 = 0.8541 | 0.131 | –
[2], x2 = 0.9325 | 0.0547 | –

CCCCC(=O)OC [methyl pentanoate] + COC(C)=O
Conditions | excess molar enthalpy [kcal/mol] | mass density [kg/m3]
[1], x1 = 0.0496 | – | 922.92
[1], x1 = 0.1001 | – | 919.44
[1], x1 = 0.1536 | – | 916.04
[1], x1 = 0.2027 | – | 913.18
[1], x1 = 0.2511 | – | 910.53
[1], x1 = 0.3522 | – | 905.55
[1], x1 = 0.4013 | – | 903.35
[1], x1 = 0.4497 | – | 901.35
[1], x1 = 0.4935 | – | 899.62
[1], x1 = 0.5444 | – | 897.75
[1], x1 = 0.5935 | – | 896.01
[1], x1 = 0.6563 | – | 893.98
[1], x1 = 0.7383 | – | 891.47
[1], x1 = 0.7902 | – | 890.02
[1], x1 = 0.843 | – | 888.62
[1], x1 = 0.8918 | – | 887.4
[1], x1 = 0.9372 | – | 886.3
[1], x1 = 1 | – | 884.84
[2], x1 = 0.0539 | 0.012 | –
[2], x1 = 0.113 | 0.0229 | –
[2], x1 = 0.1716 | 0.0323 | –
[2], x1 = 0.2347 | 0.0413 | –
[2], x1 = 0.2915 | 0.0473 | –
[2], x1 = 0.344 | 0.0521 | –
[2], x1 = 0.3954 | 0.0552 | –
[2], x1 = 0.4441 | 0.0571 | –
[2], x1 = 0.5055 | 0.0569 | –
[2], x1 = 0.5754 | 0.0545 | –
[2], x1 = 0.6517 | 0.0507 | –
[2], x1 = 0.7339 | 0.0425 | –
[2], x1 = 0.8188 | 0.0301 | –
[2], x1 = 0.9036 | 0.0179 | –

CCCCCCCC [octane]
Conditions | mass density [kg/m3] | refractive index
[3] | 698.58 | –
[4] | – | 1.3952

CCCCCCCC [octane] + CCCC(=O)OC
Conditions | mass density [kg/m3]
[1], x1 = 1 | 698.58

CCCCCCCC [octane] + CCCCC(=O)OC
Conditions | mass density [kg/m3]
[1], x1 = 1 | 698.58

CCCCCCCC [octane] + COC(C)=O
Conditions | mass density [kg/m3]
[1], x1 = 1 | 698.58
